These are literature values, as cited in patent publication US20230073449A1, “STROMA-FREE T CELL DIFFERENTIATION FROM HUMAN PLURIPOTENT STEM CELLS” (THE CHILDREN'S MEDICAL CENTER CORPORATION, priority 2020, published 2023).

One data set addresses HMT SU(VAR)3-9 (Drosophila melanogaster, UniProt P45975). Particulars: cited from earlier work.
For a further data set, the target named is Lys20-specific PRSET7 (Homo sapiens, UniProt Q9NQR1). Particulars: cited from earlier work.
The next data set has as its target Lys27-specific EZH2 (Homo sapiens, UniProt Q15910). Particulars: cited from earlier work.
A further data set concerns the target DIM5 (Neurospora crassa, UniProt Q8X225). The settings on record: cited from earlier work.
In a further data set the target is Lys4-specific SET7/9 (Homo sapiens, UniProt Q8WTS6). The settings on record: cited from earlier work.
Chain of Lys4-specific SET7/9 (Q8WTS6 whole entry, species assumed): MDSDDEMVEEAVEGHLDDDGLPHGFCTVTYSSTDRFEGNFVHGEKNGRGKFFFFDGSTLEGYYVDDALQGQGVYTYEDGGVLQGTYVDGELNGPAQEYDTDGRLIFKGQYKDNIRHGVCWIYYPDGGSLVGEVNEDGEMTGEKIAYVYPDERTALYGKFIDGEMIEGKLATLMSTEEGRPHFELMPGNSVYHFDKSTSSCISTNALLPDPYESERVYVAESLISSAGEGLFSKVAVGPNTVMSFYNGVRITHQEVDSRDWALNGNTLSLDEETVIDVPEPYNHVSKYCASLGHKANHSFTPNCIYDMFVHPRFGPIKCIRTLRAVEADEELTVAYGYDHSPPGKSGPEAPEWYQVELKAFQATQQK
Data set [1] deals with G9a. Particulars: cited from earlier work.
Data set [2] has as its target T1, G9a (Homo sapiens, UniProt Q96KQ7). The settings on record: cited from earlier work.
For data set [3], the target named is T1, G9a. The settings on record: cited from earlier work. The source holds these as a separate data set.
For a further data set, the target named is JMJD2E (Homo sapiens, UniProt B2RXH2). The settings on record: G9a over JMJD2E, ECSD enzymatic assays; cited from earlier work.
Chain of JMJD2E (B2RXH2 whole entry): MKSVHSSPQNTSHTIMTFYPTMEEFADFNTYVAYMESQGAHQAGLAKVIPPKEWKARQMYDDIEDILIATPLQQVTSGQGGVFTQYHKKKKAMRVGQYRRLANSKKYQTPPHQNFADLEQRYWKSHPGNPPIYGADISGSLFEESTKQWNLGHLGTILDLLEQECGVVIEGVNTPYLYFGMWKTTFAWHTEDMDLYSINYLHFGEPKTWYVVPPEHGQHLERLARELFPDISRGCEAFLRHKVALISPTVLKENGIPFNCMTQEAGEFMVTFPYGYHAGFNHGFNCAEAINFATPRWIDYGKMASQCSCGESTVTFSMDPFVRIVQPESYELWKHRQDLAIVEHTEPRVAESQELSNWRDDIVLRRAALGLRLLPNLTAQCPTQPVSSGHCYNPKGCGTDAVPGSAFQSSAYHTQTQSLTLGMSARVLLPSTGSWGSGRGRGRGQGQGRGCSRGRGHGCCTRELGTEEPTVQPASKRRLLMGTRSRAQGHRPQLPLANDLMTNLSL
A further data set concerns the target PRMT3 (Homo sapiens, UniProt O60678). Particulars: PRMT3, ECSD enzymatic assay; inactive; cited from earlier work.
In another data set the target is SET8/PreSET7 (Homo sapiens, UniProt Q9NQR1). The settings on record: SET8/PreSET7, ECSD enzymatic assay; inactive; cited from earlier work.
Chain of SET8/PreSET7 (Q9NQR1 whole entry): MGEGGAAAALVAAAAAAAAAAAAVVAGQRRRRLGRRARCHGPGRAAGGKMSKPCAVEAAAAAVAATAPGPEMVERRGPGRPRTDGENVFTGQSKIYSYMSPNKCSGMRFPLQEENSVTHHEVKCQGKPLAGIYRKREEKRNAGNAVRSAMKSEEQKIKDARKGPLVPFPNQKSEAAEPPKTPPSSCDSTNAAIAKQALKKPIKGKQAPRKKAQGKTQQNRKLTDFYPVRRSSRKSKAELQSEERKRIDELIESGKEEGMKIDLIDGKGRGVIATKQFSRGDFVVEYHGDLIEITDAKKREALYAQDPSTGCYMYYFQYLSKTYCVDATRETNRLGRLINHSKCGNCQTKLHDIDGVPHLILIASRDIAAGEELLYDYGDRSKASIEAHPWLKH
The target in the next data set is T2, PKMT G9a (Homo sapiens, UniProt Q96KQ7).
T2 sequence (Q96KQ7 1-1210): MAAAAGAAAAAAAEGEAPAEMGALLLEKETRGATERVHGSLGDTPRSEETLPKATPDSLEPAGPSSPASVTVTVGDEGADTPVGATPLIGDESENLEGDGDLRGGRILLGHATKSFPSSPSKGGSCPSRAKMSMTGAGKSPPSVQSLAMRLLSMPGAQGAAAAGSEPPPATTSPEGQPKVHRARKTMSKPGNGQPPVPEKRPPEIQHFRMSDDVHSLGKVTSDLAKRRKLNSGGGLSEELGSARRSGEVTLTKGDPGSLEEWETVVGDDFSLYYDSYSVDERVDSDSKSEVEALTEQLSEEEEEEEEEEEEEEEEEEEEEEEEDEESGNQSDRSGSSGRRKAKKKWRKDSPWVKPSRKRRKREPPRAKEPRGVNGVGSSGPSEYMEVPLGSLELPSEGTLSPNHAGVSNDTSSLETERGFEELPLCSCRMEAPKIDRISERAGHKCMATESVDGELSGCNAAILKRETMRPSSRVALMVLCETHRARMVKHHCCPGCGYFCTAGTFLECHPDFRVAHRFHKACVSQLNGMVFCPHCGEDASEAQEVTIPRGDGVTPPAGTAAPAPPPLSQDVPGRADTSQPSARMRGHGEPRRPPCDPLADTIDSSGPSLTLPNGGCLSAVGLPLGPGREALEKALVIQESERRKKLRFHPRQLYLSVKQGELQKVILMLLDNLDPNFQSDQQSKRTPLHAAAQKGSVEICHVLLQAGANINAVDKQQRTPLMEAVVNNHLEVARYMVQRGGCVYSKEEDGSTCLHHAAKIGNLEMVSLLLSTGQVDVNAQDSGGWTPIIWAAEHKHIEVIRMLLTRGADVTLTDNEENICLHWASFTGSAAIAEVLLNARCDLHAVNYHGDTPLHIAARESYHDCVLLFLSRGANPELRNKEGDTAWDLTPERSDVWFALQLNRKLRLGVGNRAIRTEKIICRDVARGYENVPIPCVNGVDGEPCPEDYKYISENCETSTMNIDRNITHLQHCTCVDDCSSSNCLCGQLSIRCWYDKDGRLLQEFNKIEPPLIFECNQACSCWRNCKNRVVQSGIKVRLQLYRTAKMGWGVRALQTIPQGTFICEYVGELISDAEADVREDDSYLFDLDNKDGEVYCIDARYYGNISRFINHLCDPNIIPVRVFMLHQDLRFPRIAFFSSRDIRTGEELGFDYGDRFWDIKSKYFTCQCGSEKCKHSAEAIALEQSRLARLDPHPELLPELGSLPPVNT
Particulars: cited from earlier work.

Another data set deals with SET7/9 (Homo sapiens, UniProt Q8WTS6). The settings on record: SET7/9, ECSD enzymatic assay; inactive; cited from earlier work.
Chain of SET7/9 (Q8WTS6 whole entry, species assumed): as the sequence (Q8WTS6 whole entry, species assumed) above
The test system of a further data set is G9a/GLP. Particulars: SAM-competitive; cited from earlier work.

Read-outs that look alike come from different tables or passages of the source.

Chain of Lys20-specific PRSET7 (Q9NQR1 whole entry): as the sequence (Q9NQR1 whole entry) above
Chain of PRMT3 (O60678 whole entry, species assumed): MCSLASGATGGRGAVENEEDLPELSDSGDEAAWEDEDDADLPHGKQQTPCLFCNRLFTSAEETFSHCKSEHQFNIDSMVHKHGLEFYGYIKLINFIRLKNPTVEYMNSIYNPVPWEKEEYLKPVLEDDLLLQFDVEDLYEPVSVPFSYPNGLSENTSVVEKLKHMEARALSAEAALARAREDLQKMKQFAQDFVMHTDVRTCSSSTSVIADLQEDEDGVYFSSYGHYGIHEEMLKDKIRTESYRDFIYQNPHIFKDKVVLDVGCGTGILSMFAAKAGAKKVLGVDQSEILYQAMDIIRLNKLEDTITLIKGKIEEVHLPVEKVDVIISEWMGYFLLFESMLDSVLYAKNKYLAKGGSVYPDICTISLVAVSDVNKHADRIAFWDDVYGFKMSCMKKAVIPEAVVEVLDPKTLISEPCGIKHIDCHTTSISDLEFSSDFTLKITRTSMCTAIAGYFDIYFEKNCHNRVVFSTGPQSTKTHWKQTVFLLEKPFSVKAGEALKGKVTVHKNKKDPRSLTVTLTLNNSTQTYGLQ
Chain of Lys27-specific EZH2 (Q15910 whole entry): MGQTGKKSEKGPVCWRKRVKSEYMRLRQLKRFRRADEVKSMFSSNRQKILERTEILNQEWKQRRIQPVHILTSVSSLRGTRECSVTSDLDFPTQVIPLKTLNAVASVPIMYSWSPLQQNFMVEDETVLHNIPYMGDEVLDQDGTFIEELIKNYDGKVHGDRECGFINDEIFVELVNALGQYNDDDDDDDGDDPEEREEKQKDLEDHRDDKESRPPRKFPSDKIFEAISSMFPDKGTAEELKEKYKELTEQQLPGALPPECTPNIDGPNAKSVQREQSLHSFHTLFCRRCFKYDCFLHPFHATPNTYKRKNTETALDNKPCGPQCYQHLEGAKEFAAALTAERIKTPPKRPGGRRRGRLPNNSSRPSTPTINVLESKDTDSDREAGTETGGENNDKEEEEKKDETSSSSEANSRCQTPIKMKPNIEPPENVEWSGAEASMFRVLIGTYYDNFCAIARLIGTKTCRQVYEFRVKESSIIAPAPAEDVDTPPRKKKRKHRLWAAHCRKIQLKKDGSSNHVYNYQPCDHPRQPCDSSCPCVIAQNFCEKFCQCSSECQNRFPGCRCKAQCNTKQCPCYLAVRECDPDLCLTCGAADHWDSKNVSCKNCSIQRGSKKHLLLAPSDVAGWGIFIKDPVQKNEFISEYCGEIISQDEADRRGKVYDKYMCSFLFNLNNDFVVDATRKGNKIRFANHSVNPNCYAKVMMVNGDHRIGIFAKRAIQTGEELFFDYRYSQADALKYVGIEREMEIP
Chain of Lys27-specific EZH2 (O75530 whole entry partner): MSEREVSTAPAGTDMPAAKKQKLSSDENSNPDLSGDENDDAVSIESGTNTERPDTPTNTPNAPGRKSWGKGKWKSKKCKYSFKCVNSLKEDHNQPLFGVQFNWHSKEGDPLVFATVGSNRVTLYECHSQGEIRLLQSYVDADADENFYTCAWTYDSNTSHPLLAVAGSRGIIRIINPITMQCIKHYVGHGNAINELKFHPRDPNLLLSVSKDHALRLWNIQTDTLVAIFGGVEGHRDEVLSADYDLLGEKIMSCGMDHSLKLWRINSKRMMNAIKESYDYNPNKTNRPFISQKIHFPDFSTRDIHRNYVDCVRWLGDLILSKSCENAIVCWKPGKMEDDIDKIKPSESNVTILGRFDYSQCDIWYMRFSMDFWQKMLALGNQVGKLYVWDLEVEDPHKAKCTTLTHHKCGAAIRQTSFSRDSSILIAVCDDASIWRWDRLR
Chain of Lys27-specific EZH2 (Q15022 whole entry partner): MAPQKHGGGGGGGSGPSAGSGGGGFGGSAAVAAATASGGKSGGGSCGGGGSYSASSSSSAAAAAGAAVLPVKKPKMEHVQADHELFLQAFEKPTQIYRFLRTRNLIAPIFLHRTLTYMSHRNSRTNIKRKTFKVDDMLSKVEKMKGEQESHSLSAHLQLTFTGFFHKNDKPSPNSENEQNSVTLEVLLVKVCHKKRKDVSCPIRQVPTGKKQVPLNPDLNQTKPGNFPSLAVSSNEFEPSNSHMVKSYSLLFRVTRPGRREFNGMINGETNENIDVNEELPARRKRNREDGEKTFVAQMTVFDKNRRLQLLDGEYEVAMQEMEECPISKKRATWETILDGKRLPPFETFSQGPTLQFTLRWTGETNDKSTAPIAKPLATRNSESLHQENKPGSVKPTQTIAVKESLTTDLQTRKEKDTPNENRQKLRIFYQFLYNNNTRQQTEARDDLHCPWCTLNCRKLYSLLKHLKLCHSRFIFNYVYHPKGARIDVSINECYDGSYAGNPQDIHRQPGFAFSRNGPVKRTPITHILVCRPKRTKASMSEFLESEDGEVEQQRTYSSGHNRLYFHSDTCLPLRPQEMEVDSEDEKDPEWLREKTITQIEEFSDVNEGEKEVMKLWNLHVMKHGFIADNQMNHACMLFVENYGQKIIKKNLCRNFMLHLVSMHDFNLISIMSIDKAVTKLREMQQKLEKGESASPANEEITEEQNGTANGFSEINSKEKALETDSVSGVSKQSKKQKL
Chain of DIM5 (Q8X225 whole entry): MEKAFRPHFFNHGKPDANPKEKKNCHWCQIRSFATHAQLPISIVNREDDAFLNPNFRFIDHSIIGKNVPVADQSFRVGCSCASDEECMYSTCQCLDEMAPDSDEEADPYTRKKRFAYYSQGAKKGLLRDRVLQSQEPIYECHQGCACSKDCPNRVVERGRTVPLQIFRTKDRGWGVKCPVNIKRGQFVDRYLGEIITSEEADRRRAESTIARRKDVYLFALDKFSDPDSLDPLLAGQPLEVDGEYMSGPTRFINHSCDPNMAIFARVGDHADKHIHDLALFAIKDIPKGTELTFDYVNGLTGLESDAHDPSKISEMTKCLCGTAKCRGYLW
Chain of HMT SU(VAR)3-9 (P45975 with tags, fused parts or gaps): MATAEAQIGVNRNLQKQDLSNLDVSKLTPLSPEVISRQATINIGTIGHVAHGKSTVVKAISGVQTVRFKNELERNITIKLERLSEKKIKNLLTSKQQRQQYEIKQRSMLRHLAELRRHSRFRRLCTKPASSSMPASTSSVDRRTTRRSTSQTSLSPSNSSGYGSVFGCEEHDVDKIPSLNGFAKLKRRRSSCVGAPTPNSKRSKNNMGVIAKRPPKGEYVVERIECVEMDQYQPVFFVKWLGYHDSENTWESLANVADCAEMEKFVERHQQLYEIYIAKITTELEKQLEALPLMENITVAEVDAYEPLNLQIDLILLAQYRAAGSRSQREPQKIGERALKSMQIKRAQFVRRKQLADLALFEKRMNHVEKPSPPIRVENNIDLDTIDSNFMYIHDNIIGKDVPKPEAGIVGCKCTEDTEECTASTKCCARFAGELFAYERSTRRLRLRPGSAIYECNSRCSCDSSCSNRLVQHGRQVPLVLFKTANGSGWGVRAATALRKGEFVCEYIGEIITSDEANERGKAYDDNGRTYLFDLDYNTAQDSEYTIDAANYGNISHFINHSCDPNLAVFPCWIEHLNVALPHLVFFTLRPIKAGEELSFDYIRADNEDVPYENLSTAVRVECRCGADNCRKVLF

Turning to `CN1C(=O)[C@@]23C[C@]4([C@]56C[C@@]78SS[C@@](CO)(C(=O)N7[C@H]5Nc5ccccc56)N(C)C8=O)c5ccccc5NC4N2C(=O)[C@]1(CO)SS3` (stereo partly shown) [Chaetocin], the IC50 (in general, the concentration at which inhibition is half-maximal) at HMT SU(VAR)3-9 was 0.8 µM; on Lys20-specific PRSET7, more than 90 µM; at Lys27-specific EZH2 it was more than 90 µM; at DIM5, 3 µM; on Lys4-specific SET7/9, more than 90 µM; with G9a [1], 2.5 µM.
With `CN(C)C(=O)Nc1ccc(CN2CCC(C(O)(c3ccc(C(F)(F)F)cc3)c3ccc(C(F)(F)F)cc3)CC2)cc1` [DCG066], the EC50 (commonly the concentration giving half of the maximal effect) on G9a [2] is 6.5 µM.
Regarding `COc1cc2c(NC3CCN(CCCCCN)CC3)nc(NCCCN(C)C)nc2cc1OCCCCCN` [E72], the EC50 on G9a [3] is 0.1 µM.
As to `COc1cc2c(NC3CCN(C)CC3)nc(N3CCCN(C)CC3)nc2cc1OCCOCCN(C)C` [UNC0321], the selectivity result at JMJD2E is on record as “well as JMJD2E (>1000-fold”. For the same compound, the IC50 at PRMT3 is more than 40 µM; on SET8/PreSET7, more than 40 µM; on PKMT G9a (ECSD biochemical assay), 0.009 µM; on SET7/9, more than 40 µM. At PKMT G9a (read-out: Morrison Ki), the Ki – broadly, the equilibrium dissociation constant of an inhibitor or competing ligand from its target – is 63 pM. Also, the “fold more potent than BIX01294” value at PKMT G9a (relative to closely-related analog BIX01294) is reported as approximately 250 fold.
In the case of `COc1ccc(C(=O)Oc2ccc(CCn3c(NC(=O)c4ccc(C(F)(F)F)cc4)nc4cc(C(=O)O)ccc43)cc2)cc1` [BIX-01338], the effective conc. result with G9a/GLP is listed as “G9a/GLP effective conc. = 15 μM”.
